How the values were obtained:
[1] = test system: surinam grass; test: Test B pre/postemergence surinam grass; format: in vivo, Brachiaria decumbens
Method in brief: (§1)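 Herbicidal effect was estimated by eye on a ten-point control scale after plants spent twelve to sixteen days in a greenhouse following soil or foliar treatment. Foliar sprays targeted plants at one to four leaves; all doses were formulated in a non-phytotoxic solvent with surfactant.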

[2] = test system: cocklebur; test: Test B pre/postemergence cocklebur; format: in vivo, Xanthium strumarium
Method in brief: as §1

[3] = test system: corn; test: Test B pre/postemergence corn; format: in vivo, Zea mays
Method in brief: as §1

[4] = test system: crabgrass; test: Test B pre/postemergence crabgrass; format: in vivo, Digitaria sanguinalis
Method in brief: as §1

[5] = test system: giant foxtail; test: Test B pre/postemergence giant foxtail; format: in vivo, Setaria faberii
Method in brief: as §1

[6] = test system: morningglory; test: Test B pre/postemergence morningglory; format: in vivo, Ipomoea hederacea
Method in brief: as §1

[7] = test system: pigweed; test: Test B pre/postemergence pigweed; format: in vivo, Amaranthus retroflexus
Method in brief: as §1

[8] = test system: rape; test: Test B pre/postemergence rape; format: in vivo, Brassica napus
Method in brief: as §1

[9] = test system: soybean; test: Test B pre/postemergence soybean; format: in vivo, Glycine max
Method in brief: as §1

[10] = test system: sugar beet; test: Test B pre/postemergence sugar beet; format: in vivo, Beta vulgaris
Method in brief: as §1

[11] = test system: wild oat; test: Test B pre/postemergence wild oat; format: in vivo, Avena fatua
Method in brief: as §1

[12] = test system: purple nutsedge; test: Test B pre/postemergence purple nutsedge; format: in vivo, Cyperus rotundus
Method in brief: as §1

[13] = test system: rice; test: Test B flood test rice; format: in vivo, Oryza sativa
Method in brief: (§2)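 Flood test on plants grown to the 2-leaf stage; treated plants kept in greenhouse twelve to sixteen days, then visually rated against controls on a 0 (no effect) to 10 (complete control) scale.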

[14] = test system: smallflower flatsedge; test: Test B flood test smallflower flatsedge; format: in vivo, Cyperus difformis
Method in brief: as §2

[15] = test system: duck salad; test: Test B flood test duck salad; format: in vivo, Heteranthera limosa
Method in brief: as §2

[16] = test system: bamyardgrass; test: Test B flood test barnyardgrass; format: in vivo, Echinochloa crus-galli
Method in brief: as §2

[17] = Preemergence, Rate 62 g/ha, scale of 0 to 10 where 0 is no effect and 10 is complete control
[18] = Preemergence, Rate 125 g/ha, 0 is no effect, 10 is complete control
[19] = Preemergence, Rate 250 g/ha, scale 0 to 10, 0 is no effect, 10 is complete control
[20] = Preemergence, Rate 500 g/ha, scale of 0 to 10 where 0 is no effect and 10 is complete control
[21] = Rate 62 g/ha, Postemergence, scale of 0 to 10 where 0 is no effect and 10 is complete control
[22] = Rate 125 g/ha, Postemergence, scale 0 to 10
[23] = Rate 500 g/ha, Postemergence, scale 0 to 10
[24] = Rate 62 g/ha, headed Pre-emergence (flood test species), scale 0 to 10 (0 no effect, 10 complete control)
[25] = Rate 125 g/ha, Pre-emergence, flood test species, scale 0 to 10 where 0 is no effect and 10 is complete control
[26] = Rate 250 g/ha, Pre-emergence, flood-test species, scale 0 to 10, 0 is no effect, 10 is complete control
[27] = Rate 500 g/ha, headed Pre-emergence (flood test species), scale 0 to 10 (0 no effect, 10 complete control)

Cc1nc(C)c(-n2c(=O)on(C(=O)N(c3ccc(F)cc3)C(C)C)c2=O)s1 [Compound 198]
1: Soybean plant response rating [9, 23]
2: Plant response rating (0 to 10; 0 is no effect, 10 is complete control), Morningglory ([6]; Rate 250 g/ha, Postemergence)
3: Plant response rating, Giant foxtail [5, 20] | Morningglory plant response rating [6, 23]
0: B. signalgrass plant response rating [1, 17] | B. signalgrass plant response rating (0 to 10 scale) [1, 18] | B. signalgrass plant response rating [1, 19] | Plant response rating, B. signalgrass [1, 20] | B. signalgrass plant response rating [1, 21] | B. signalgrass plant response rating ([1]; Rate 125 g/ha, Postemergence, scale 0 (no effect) to 10 (complete control)) | Plant response rating, B. signalgrass ([1]; Rate 250 g/ha, Postemergence, scale 0 to 10, 0 is no effect, 10 is complete control) | B. signalgrass plant response rating ([1]; Rate 500 g/ha, Postemergence, scale 0 to 10, 0 no effect, 10 complete control) | Cocklebur plant response rating [2, 17] | Cocklebur plant response rating (0 to 10 scale) [2, 18] | Cocklebur plant response rating [2, 19] | Plant response rating, Cocklebur [2, 20] | Cocklebur plant response rating [2, 21] | Cocklebur plant response rating [2, 22] | Plant response rating (0 to 10; 0 is no effect, 10 is complete control), Cocklebur ([2]; Rate 250 g/ha, Postemergence) | Cocklebur plant response rating [2, 23] | Corn plant response rating [3, 17] | Corn plant response rating (0 to 10 scale) [3, 18] | Corn plant response rating [3, 19] | Plant response rating, Corn [3, 20] | Corn plant response rating [3, 21] | Corn plant response rating [3, 22] | Plant response rating (0 to 10; 0 is no effect, 10 is complete control), Corn ([3]; Rate 250 g/ha, Postemergence) | Corn plant response rating [3, 23] | Crabgrass plant response rating [4, 17] | Crabgrass plant response rating (0 to 10 scale) [4, 18] | Crabgrass plant response rating [4, 19] | Plant response rating, Crabgrass [4, 20] | Crabgrass plant response rating [4, 21] | Crabgrass plant response rating [4, 22] | Plant response rating (0 to 10; 0 is no effect, 10 is complete control), Crabgrass ([4]; Rate 250 g/ha, Postemergence) | Crabgrass plant response rating [4, 23] | Giant foxtail plant response rating [5, 17] | Giant foxtail plant response rating (0 to 10 scale) [5, 18] | Giant foxtail plant response rating [5, 19] | Giant foxtail plant response rating [5, 21] | Giant foxtail plant response rating [5, 22] | Plant response rating (0 to 10; 0 is no effect, 10 is complete control), Giant foxtail ([5]; Rate 250 g/ha, Postemergence) | Giant foxtail plant response rating [5, 23] | Morningglory plant response rating [6, 17] | Morningglory plant response rating (0 to 10 scale) [6, 18] | Morningglory plant response rating [6, 19] | Plant response rating, Morningglory [6, 20] | Morningglory plant response rating [6, 21] | Morningglory plant response rating [6, 22] | Redroot pigweed plant response rating [7, 17] | Redroot pigweed plant response rating (0 to 10 scale) [7, 18] | Redroot pigweed plant response rating [7, 19] | Plant response rating, Redroot pigweed [7, 20] | Redroot pigweed plant response rating [7, 21] | Redroot pigweed plant response rating [7, 22] | Plant response rating (0 to 10; 0 is no effect, 10 is complete control), Redroot pigweed ([7]; Rate 250 g/ha, Postemergence) | Redroot pigweed plant response rating [7, 23] | Rape plant response rating [8, 17] | Rape plant response rating (0 to 10 scale) [8, 18] | Rape plant response rating [8, 19] | Plant response rating, Rape [8, 20] | Rape plant response rating [8, 21] | Rape plant response rating [8, 22] | Plant response rating (0 to 10; 0 is no effect, 10 is complete control), Rape ([8]; Rate 250 g/ha, Postemergence) | Rape plant response rating [8, 23] | Soybean plant response rating [9, 17] | Soybean plant response rating (0 to 10 scale) [9, 18] | Soybean plant response rating [9, 19] | Plant response rating, Soybean [9, 20] | Soybean plant response rating [9, 21] | Soybean plant response rating [9, 22] | Plant response rating (0 to 10; 0 is no effect, 10 is complete control), Soybean ([9]; Rate 250 g/ha, Postemergence) | Sugarbeets plant response rating [10, 17] | Sugarbeets plant response rating (0 to 10 scale) [10, 18] | Sugarbeets plant response rating [10, 19] | Plant response rating, Sugarbeets [10, 20] | Sugarbeets plant response rating [10, 21] | Sugarbeets plant response rating [10, 22] | Plant response rating (0 to 10; 0 is no effect, 10 is complete control), Sugarbeets ([10]; Rate 250 g/ha, Postemergence) | Sugarbeets plant response rating [10, 23] | Wild oats plant response rating [11, 17] | Wild oats plant response rating [11, 19] | Plant response rating, Wild oats [11, 20] | Wild oats plant response rating [11, 21] | Wild oats plant response rating [11, 22] | Plant response rating (0 to 10; 0 is no effect, 10 is complete control), Wild oats ([11]; Rate 250 g/ha, Postemergence) | Nutsedge plant response rating [12, 17] | Nutsedge plant response rating (0 to 10 scale) [12, 18] | Nutsedge plant response rating [12, 19] | Plant response rating, Nutsedge [12, 20] | Nutsedge plant response rating [12, 21] | Nutsedge plant response rating [12, 22] | Plant response rating (0 to 10; 0 is no effect, 10 is complete control), Nutsedge ([12]; Rate 250 g/ha, Postemergence) | Nutsedge plant response rating [12, 23] | Rice plant response rating [13, 24] | Rice plant response rating [13, 25] | Rice plant response rating [13, 26] | Plant response rating, Rice [13, 27] | S. Flatsedge plant response rating [14, 24] | S. Flatsedge plant response rating [14, 25] | S. Flatsedge plant response rating [14, 26] | S. Flatsedge plant response rating ([14]; Rate 500 g/ha, Pre-emergence, flood test species, scale 0 to 10 (0 no effect, 10 complete control)) | Ducksalad plant response rating [15, 24] | Ducksalad plant response rating [15, 25] | Ducksalad plant response rating [15, 26] | Plant response rating, Ducksalad [15, 27] | Barnyardgrass plant response rating [16, 24] | Barnyardgrass plant response rating [16, 25] | Barnyardgrass plant response rating [16, 26] | Plant response rating, Barnyardgrass [16, 27]
